{"source": "patent US11951137B2", "about": "“Compositions comprising unsaturated fatty acids and nitric oxide releasing compounds and use thereof for enhancing cognitive and related functions” (SOCIETE DES PRODUITS NESTLE S.A., priority 2008, dated 2024)", "tested_on": "human iCell neurons", "test": "Amyloid beta 42 ELISA on supernatant, neuronal model", "conditions": "treated 2 days, 3 concentrations, FIG. 2", "experimental": "For a neuronal model, human iCell neurons (Cellular Dynamics International) were plated in 96-well plates and were grown to neuronal maturity by culturing for 2 weeks.\nIn each model, cells were then treated with DHA (UFA), arginine and citrulline (NORC's) at 3 different concentrations (see table 1 in FIG. 1) for 2 days. The supernatant was used to perform Amyloid beta 42 (A131-42) ELISA Kit, Human (KHB3441, Thermo Fisher Scientific).", "data": [{"smiles": "CC/C=C\\C/C=C\\C/C=C\\C/C=C\\C/C=C\\C/C=C\\CCC(=O)O", "note": "[DHA, docosahexaenoic acid]", "values": [{"measurement": "release of Aβ1-42", "result": "no effect"}]}, {"smiles": "NC(=O)NCCC[C@H](N)C(=O)O", "note": "[citrulline]", "values": [{"measurement": "release of Aβ1-42", "result": "no effect"}]}]}
